Results as given in patent publication US12570975B2, “Composition for diagnosis or treatment of a condition associated with increased activity of EIF4E comprising an EIF4E inhibitor” (SoVarGen Co., Ltd., priority 2019, dated 2026).

Assays:
[1] = test system: C57BL/6J mice; conditions: mouse, in vivo
[2] = test system: GFP-labeled mutant cells of FMCD animal models; test: Neuronal (mutant) cell size after ICV injection of ASO; type: in vivo, mouse; conditions: intractable epilepsy models, week 4-5 after ICV injection
Method: Week 4-5 after intracerebroventricular injection of ASO into the FMCD animal models established using pCIG-mTOR mutant-IRES-EGFP vector of Example 1, the brain was removed, fixed, sectioned, and immunostained. For neuronal cell size (FIG. 22), GFP (green)-labeled mutant cells (ASO control or ASO eIF4E) were measured for size in the obtained mouse brain tissues.

[3] = test system: eIF4E mRNA; test: Inhibitory concentration (IC50) against eIF4E mRNA, real-time PCR, HEK293T; type: cell-based, human
Method: In order to calculate IC50 values for ASO sequences, ASO candidates are transfected at different concentrations (20 nM, 80 nM, 320 nM) into the human cell line HEK293T (human) with the aid of iN-fect™ in vitro transfection reagent (15081, iNtRON, Republic of Korea). Twenty four hours after ASO transfection, the cells were harvested and analyzed for eIF4E mRNA expression reduction by real-time PCR. Relative eIF4E mRNA expression was normalized to the expression level using GAPDH as an internal control and was evaluated using the 2^−ΔΔCq method.
For comparison of inhibitory concentrations (IC50) among ASO candidates, a dose-response curve was derived by normalized nonlinear regression using Prism8 program (GraphPad Software, USA) (FIG. 16e).

[4] = test system: FMCD and epilepsy animal models (mTOR-p.C1483Y, mTOR-p.L2427P); test: Marble burying test, FMCD epilepsy models; type: in vivo, mouse; conditions: ASO-eIF4E models compared to ASO-control models
Method: A mouse was placed in the cage.
Experiments were performed on the FMCD and epilepsy animal models (mTOR-p.C1483Y, mTOR-p.L2427P) of Example 7-1 and the control normal animal models (mTOR-WT). The same sheIF4E as that described in Example 2 was used. Week 2 after sheIF4E injection, the handling was performed in the animals. Week 3 after sheIF4E injection, the animals were subjected to the behavioral tests.
The epilepsy animal models were subjected to the substantially same behavioral abnormality assay as in Example 6. The results are depicted in FIGS. 28 and 29.
(§1) Briefly, ASO #77 was administered by ICV injection to the FMCD and epilepsy animal models were generated with the pCIG-mTOR mutant-IRES-EGFP of Example 1. ASO #77 was evaluated for therapeutic potential for neuropsychiatric disorder accompanying the FMCD epilepsy animal models in the substantially same manner as in Example 6.

[5] = test system: C57BL/6J mice; conditions: mouse, in vivo; remark: listed apart in the source
[6] = test system: C57BL/6J mice; conditions: mouse, in vivo; remark: listed apart in the source
Method: In this regard, ASO was administered by ICV injection. The ASO used in this experiment was ASO #77.
(§2) The 3-Chamber test measures social interaction and preference for social novelty. This apparatus consisted of three chambers with dimensions of 12×20×26 cm for the center chamber and dimensions of 14×20×26 cm for the opposite side chambers. Each of the opposite side chambers included a plastic cage (11 cm in diameter, 2.15 cm in height) for an object or stranger mouse in a corner. This experiment consisted of three sessions of habituation (10 min), exploring object/mouse (10 min), and exploring familiar/new mouse (10 min). In the second session, a WT stranger mouse was randomly placed in a plastic cage while the opposite plastic cage was empty. The mouse was allowed to freely explore the whole apparatus. The time spent in each chamber was measured and then used for the subsequent social interaction test. In the last session, a new WT stranger was placed in the empty plastic cage.

[7] = test system: FMCD and epilepsy animal models (mTOR-p.C1483Y, mTOR-p.L2427P); test: 3-Chamber test (social interaction), FMCD epilepsy models; type: in vivo, mouse; conditions: ASO-eIF4E models compared to ASO-control models
Method: as §2
Experiments were performed on the FMCD and epilepsy animal models (mTOR-p.C1483Y, mTOR-p.L2427P) of Example 7-1 and the control normal animal models (mTOR-WT). […]
as §1

[8] = test system: epilepsy models (mTOR p.C1483Y or mTOR p.L2427P); test: Seizure monitoring after ICV injection of ASO in FMCD epilepsy models; type: in vivo, mouse; conditions: ICV injection 100-500 μg, day 3 to day 70 after injection
Method: For this experiment, animal models established using pCIG-mTOR p.C1483Y-IRES-EGFP and pCIG-mTOR p.L2427P-IRES-EGFP of Example 1 were used while animal models established with pCIG-mTOR (WT)-IRES-EGFP […] served as a control. The ASOs were each intracerebroventricularly injected (ICV injection) at a dose of 100-500 μg to the brains of the mice that had been identified to undergo epileptic seizure. From day 3 after ASO injection to up to day 70, 12-hour video were recorded for seizure monitoring 2-3 times a week per mouse.

[9] = test system: mutant-expressing cells in the brain tissue; conditions: mouse, in vivo
[10] = test system: eIF4E; test: Immunofluorescence of eIF4E in brain cells after ASO injection; type: in vivo, mouse; conditions: week 4-5 after ICV injection, FMCD models
Method: Week 4-5 after intracerebroventricular injection of ASO into the animal models established using pCIG-mTOR mutant-IRES-EGFP vector of Example 1, the brain was removed, fixed, sectioned, and immunostained.
Immunostaining with antibodies against ADK, CREB1, IRSp53, and eIF4E and Imaging with fluorescence were conducted in the same manner as in Example 2.

## ASO #77: eIF4E-targeting antisense oligonucleotide of SEQ ID NO: 77, 2′-MOE gapmer, all phosphorothioate linkages (antisense GATCCTTCACCAATGTTACA; all phosphorothioate, sugars by position and methylation of C not given here; 2'-MOE gapmer)
[1]
  number of buried marbles (index of repetitive behavior): not changed
[2]
  mutant cell size: therapeutic effects
[3]; HEK293T, 20, 80, 320 nM, 24 h after transfection, read-out: IC50 against eIF4E mRNA expression
  IC50: 53.8 nM
[3]; HEK293T, at all of the doses (20 nM, 80 nM, 320 nM)
  eIF4E mRNA expression compared to the mismatch ASO: inhibited
[4]
  number of buried marbles (repetitive behavior): increased
[5]
  dyskinesia (behavior test): no dyskinesia
  time spent in center (index of anxiety): not changed
[6]
  time spent in sniffing zone (index of sociality): not changed
[7]
  time spent in sniffing zone (social ability): increased
[8]
  seizure frequency: remarkably reduced
[9]
  delivery into mutant-expressing cells in the brain tissue: effectively delivered
[10]
  eIF4E expression in brain cells (immunofluorescence): reduction of eIF4E expression
